These results are taken from the OligoGym collection.

Oligonucleotides are written 5' to 3', each unit as a sugar letter and its base; * is a phosphorothioate linkage, no mark a phosphodiester; rarer units and linkages stand in square brackets, end groups in braces. Plain capitals give the bases only. d = 2'-deoxy (DNA); r = 2'-OH (RNA)
Also: test concentration or dose not given here.

This data set deals with DENND5A. Kind of data set: reporter assay of Huesken 2005. The note with it: siRNA. (In general: Reporter assays use an easily measured gene product as a stand-in for the process of interest.)
As to “sense rArGrGrArGrArArUrUrGrGrGrUrGrArGrArCrAdTdT / antisense rUrGrUrCrUrCrArCrCrCrArArUrUrCrUrCrCrUdGdA”, the normalised inhibition (eCFP-eYFP dual reporter) was 70.5%.

“sense rUrUrCrCrUrUrGrArUrUrCrGrUrGrUrGrCrUrGdTdT / antisense rCrArGrCrArCrArCrGrArArUrCrArArGrGrArAdTdT” returned a normalised inhibition (eCFP-eYFP dual reporter) of 22.1%.

“sense rCrUrCrUrArCrGrUrCrUrCrUrArArGrUrGrCrAdTdT / antisense rUrGrCrArCrUrUrArGrArGrArCrGrUrArGrArGdAdG” displayed a normalised inhibition (eCFP-eYFP dual reporter) of 68.3%.

Consider “sense rArArUrGrGrCrArUrUrGrUrGrArArGrCrArCrUdTdT / antisense rArGrUrGrCrUrUrCrArCrArArUrGrCrCrArUrUdGdA”, for which the normalised inhibition (eCFP-eYFP dual reporter) came out at 60.5%.

In turn, “sense rCrArCrArUrGrCrArCrArArUrGrCrUrGrArGrUdTdT / antisense rArCrUrCrArGrCrArUrUrGrUrGrCrArUrGrUrGdGdT” displayed a normalised inhibition (eCFP-eYFP dual reporter) of 69.6%.

Turning to “sense rArGrArGrGrGrArGrArArGrUrArCrArUrCrCrAdTdT / antisense rUrGrGrArUrGrUrArCrUrUrCrUrCrCrCrUrCrUdGdG”, the normalised inhibition (eCFP-eYFP dual reporter) stood at 80.7%.

Take “sense rArCrArUrCrCrArGrArArCrArUrCrGrGrGrGrAdTdT / antisense rUrCrCrCrCrGrArUrGrUrUrCrUrGrGrArUrGrUdGdC”: the normalised inhibition (eCFP-eYFP dual reporter) was 44.4%.

As to “sense rGrArArUrGrGrGrArArCrArUrUrGrCrUrGrGrCdTdT / antisense rGrCrCrArGrCrArArUrGrUrUrCrCrCrArUrUrCdCdT”, the normalised inhibition (eCFP-eYFP dual reporter) stood at 45.3%.

On to “sense rGrUrGrCrCrArGrArArCrUrUrGrGrGrGrArArGdTdT / antisense rCrUrUrCrCrCrCrArArGrUrUrCrUrGrGrCrArCdTdC”, for which the normalised inhibition (eCFP-eYFP dual reporter) worked out at 41.9%.

Take “sense rArArGrArGrGrArArUrGrGrGrArArCrArUrUrGdTdT / antisense rCrArArUrGrUrUrCrCrCrArUrUrCrCrUrCrUrUdGdT”: the normalised inhibition (eCFP-eYFP dual reporter) came out at 50%.

On to “sense rGrGrCrUrArArCrCrUrCrUrGrCrUrUrUrGrUrGdTdT / antisense rCrArCrArArArGrCrArGrArGrGrUrUrArGrCrCdTdC”, for which the normalised inhibition (eCFP-eYFP dual reporter) is 70.2%.

As for “sense rGrGrArGrCrArArCrUrCrCrArCrCrArGrGrCrAdTdT / antisense rUrGrCrCrUrGrGrUrGrGrArGrUrUrGrCrUrCrCdAdG”, the normalised inhibition (eCFP-eYFP dual reporter) stood at 62.1%.

On to “sense rGrArGrGrArUrGrGrCrUrCrUrCrGrGrArCrArUdTdT / antisense rArUrGrUrCrCrGrArGrArGrCrCrArUrCrCrUrCdCdC”, for which the normalised inhibition (eCFP-eYFP dual reporter) was found to be 55.9%.

As for “sense rUrGrArArGrArGrGrUrGrArCrUrArGrCrArArGdTdT / antisense rCrUrUrGrCrUrArGrUrCrArCrCrUrCrUrUrCrAdTdA”, the normalised inhibition (eCFP-eYFP dual reporter) was 68.6%.

“sense rUrUrUrCrArCrUrCrArGrArUrGrUrUrUrGrCrAdTdT / antisense rUrGrCrArArArCrArUrCrUrGrArGrUrGrArArAdCdG” returned a normalised inhibition (eCFP-eYFP dual reporter) of 42.4%.

In turn, “sense rCrArGrArUrCrUrGrCrArGrUrGrCrArArUrGrCdTdT / antisense rGrCrArUrUrGrCrArCrUrGrCrArGrArUrCrUrGdCdT” showed a normalised inhibition (eCFP-eYFP dual reporter) of 56.3%.

The substance “sense rArGrArArGrArArCrUrCrArGrGrArUrUrUrArCdTdT / antisense rGrUrArArArUrCrCrUrGrArGrUrUrCrUrUrCrUdTdC” showed a normalised inhibition (eCFP-eYFP dual reporter) of 44.7%.

“sense rCrUrGrUrCrGrGrCrArUrUrArUrGrCrCrArGrUdTdT / antisense rArCrUrGrGrCrArUrArArUrGrCrCrGrArCrArGdCdT” had a normalised inhibition (eCFP-eYFP dual reporter) of 73%.

“sense rUrCrArGrUrGrUrGrArUrGrArArGrArArGrArAdTdT / antisense rUrUrCrUrUrCrUrUrCrArUrCrArCrArCrUrGrAdAdC” displayed a normalised inhibition (eCFP-eYFP dual reporter) of 75.2%.

Consider “sense rGrArGrGrUrGrGrArUrGrArGrArGrGrCrCrArUdTdT / antisense rArUrGrGrCrCrUrCrUrCrArUrCrCrArCrCrUrCdAdG”, for which the normalised inhibition (eCFP-eYFP dual reporter) is 74.4%.

“sense rCrCrArGrCrUrCrArCrUrCrArUrGrCrCrUrCrCdTdT / antisense rGrGrArGrGrCrArUrGrArGrUrGrArGrCrUrGrGdCdA”: the normalised inhibition (eCFP-eYFP dual reporter) amounted to 64.4%.

Turning to “sense rUrCrUrCrCrUrGrCrArUrUrUrCrUrUrArGrArUdTdT / antisense rArUrCrUrArArGrArArArUrGrCrArGrGrArGrAdGdA”, the normalised inhibition (eCFP-eYFP dual reporter) worked out at 51.3%.

For the substance “sense rArArUrGrGrGrArArCrArUrUrGrCrUrGrGrCrUdTdT / antisense rArGrCrCrArGrCrArArUrGrUrUrCrCrCrArUrUdCdC”, the normalised inhibition (eCFP-eYFP dual reporter) was 43.6%.

In turn, “sense rUrArUrGrArGrGrCrGrUrUrUrGrUrCrArUrCrCdTdT / antisense rGrGrArUrGrArCrArArArCrGrCrCrUrCrArUrAdAdT” gave a normalised inhibition (eCFP-eYFP dual reporter) of 44.9%.

For “sense rUrGrUrUrUrGrCrArGrArUrUrArUrGrArGrGrCdTdT / antisense rGrCrCrUrCrArUrArArUrCrUrGrCrArArArCrAdTdC”, the normalised inhibition (eCFP-eYFP dual reporter) came to 38.5%.

In turn, “sense rUrUrGrArCrCrArArGrArUrGrCrArGrUrArGrGdTdT / antisense rCrCrUrArCrUrGrCrArUrCrUrUrGrGrUrCrArAdAdG” came in with a normalised inhibition (eCFP-eYFP dual reporter) of 57.9%.

As for “sense rGrCrCrCrGrGrArArCrUrUrCrUrGrCrCrGrArUdTdT / antisense rArUrCrGrGrCrArGrArArGrUrUrCrCrGrGrGrCdTdC”, the normalised inhibition (eCFP-eYFP dual reporter) is 70.9%.

“sense rArUrCrCrArArCrCrCrArGrCrCrArGrGrArUrAdTdT / antisense rUrArUrCrCrUrGrGrCrUrGrGrGrUrUrGrGrArUdGdA” gave a normalised inhibition (eCFP-eYFP dual reporter) of 51.8%.

Take “sense rArUrUrUrGrGrGrUrUrUrGrCrCrCrUrCrArCrAdTdT / antisense rUrGrUrGrArGrGrGrCrArArArCrCrCrArArArUdGdT”: the normalised inhibition (eCFP-eYFP dual reporter) turned out to be 72.2%.

“sense rArUrUrCrCrUrArCrGrArGrCrUrUrCrUrUrArAdTdT / antisense rUrUrArArGrArArGrCrUrCrGrUrArGrGrArArUdGdC” gave a normalised inhibition (eCFP-eYFP dual reporter) of 65.4%.

In turn, “sense rArGrGrGrArUrGrGrUrGrCrCrArGrCrCrCrUrUdTdT / antisense rArArGrGrGrCrUrGrGrCrArCrCrArUrCrCrCrUdGdG” came in with a normalised inhibition (eCFP-eYFP dual reporter) of 83.7%.

In the case of “sense rArCrGrArGrCrUrGrUrCrGrGrCrArUrUrArUrGdTdT / antisense rCrArUrArArUrGrCrCrGrArCrArGrCrUrCrGrUdCdC”, the normalised inhibition (eCFP-eYFP dual reporter) came to 54.1%.

The substance “sense rCrUrUrUrGrUrGrArUrCrUrCrCrUrGrGrArArAdTdT / antisense rUrUrUrCrCrArGrGrArGrArUrCrArCrArArArGdGdC” had a normalised inhibition (eCFP-eYFP dual reporter) of 65.8%.

Take “sense rArArArUrCrArGrCrCrUrUrArUrGrGrUrCrCrCdTdT / antisense rGrGrGrArCrCrArUrArArGrGrCrUrGrArUrUrUdCdC”: the normalised inhibition (eCFP-eYFP dual reporter) is 41.9%.

“sense rGrCrArCrUrUrCrCrArUrArArGrCrCrUrGrArGdTdT / antisense rCrUrCrArGrGrCrUrUrArUrGrGrArArGrUrGrCdTdT” registered a normalised inhibition (eCFP-eYFP dual reporter) of 78.7%.

As for “sense rUrUrArCrCrArGrArGrArCrUrGrArUrGrArCrUdTdT / antisense rArGrUrCrArUrCrArGrUrCrUrCrUrGrGrUrArAdTdG”, the normalised inhibition (eCFP-eYFP dual reporter) came out at 28.8%.

With “sense rUrCrCrCrCrUrUrUrGrCrArUrUrCrCrUrArCrGdTdT / antisense rCrGrUrArGrGrArArUrGrCrArArArGrGrGrGrAdGdC”, the normalised inhibition (eCFP-eYFP dual reporter) was 44.7%.

For the substance “sense rGrArGrCrUrGrCrUrCrArCrArUrCrCrCrArGrCdTdT / antisense rGrCrUrGrGrGrArUrGrUrGrArGrCrArGrCrUrCdCdC”, the normalised inhibition (eCFP-eYFP dual reporter) was determined as 42.6%.

The substance “sense rUrGrCrCrCrGrGrCrUrGrCrArArGrCrCrUrUrGdTdT / antisense rCrArArGrGrCrUrUrGrCrArGrCrCrGrGrGrCrAdAdT” had a normalised inhibition (eCFP-eYFP dual reporter) of 56.4%.

Regarding “sense rGrArUrCrCrUrArGrUrUrGrGrGrGrArGrCrUrGdTdT / antisense rCrArGrCrUrCrCrCrCrArArCrUrArGrGrArUrCdCdG”, the normalised inhibition (eCFP-eYFP dual reporter) came to 66.6%.

In turn, “sense rGrArUrGrArGrArGrGrCrCrArUrGrCrCrGrGrAdTdT / antisense rUrCrCrGrGrCrArUrGrGrCrCrUrCrUrCrArUrCdCdA” showed a normalised inhibition (eCFP-eYFP dual reporter) of 63%.

Turning to “sense rGrGrArCrUrGrGrArCrArCrGrGrArGrArCrCrGdTdT / antisense rCrGrGrUrCrUrCrCrGrUrGrUrCrCrArGrUrCrCdGdC”, the normalised inhibition (eCFP-eYFP dual reporter) stood at 60.4%.

Take “sense rArUrUrGrArCrCrArUrArCrUrGrCrArArUrUrCdTdT / antisense rGrArArUrUrGrCrArGrUrArUrGrGrUrCrArArUdTdT”: the normalised inhibition (eCFP-eYFP dual reporter) turned out to be 45.9%.

The substance “sense rArUrUrUrGrArCrUrUrUrCrCrUrGrUrCrArArAdTdT / antisense rUrUrUrGrArCrArGrGrArArArGrUrCrArArArUdAdG” gave a normalised inhibition (eCFP-eYFP dual reporter) of 53.7%.

As to “sense rCrArUrGrUrCrGrGrArGrCrGrUrGrCrUrGrGrAdTdT / antisense rUrCrCrArGrCrArCrGrCrUrCrCrGrArCrArUrGdCdC”, the normalised inhibition (eCFP-eYFP dual reporter) worked out at 60.8%.

The substance “sense rArGrGrCrUrGrArUrCrCrCrArGrGrGrArGrCrCdTdT / antisense rGrGrCrUrCrCrCrUrGrGrGrArUrCrArGrCrCrUdGdG” had a normalised inhibition (eCFP-eYFP dual reporter) of 57.4%.

As to “sense rArGrCrCrCrCrArArUrUrCrCrArUrGrCrCrUrUdTdT / antisense rArArGrGrCrArUrGrGrArArUrUrGrGrGrGrCrUdCdC”, the normalised inhibition (eCFP-eYFP dual reporter) came to 57.6%.

In turn, “sense rGrGrUrGrCrCrGrCrUrCrCrCrArCrCrUrCrCrUdTdT / antisense rArGrGrArGrGrUrGrGrGrArGrCrGrGrCrArCrCdTdC” showed a normalised inhibition (eCFP-eYFP dual reporter) of 39%.

Take “sense rGrGrGrArGrCrCrArGrArGrArUrCrArCrCrUrCdTdT / antisense rGrArGrGrUrGrArUrCrUrCrUrGrGrCrUrCrCrCdAdA”: the normalised inhibition (eCFP-eYFP dual reporter) is 49.7%.
